Measured values: patent publication US6656948B2, “Cytotoxic compounds: derivatives of the pyrido[2,3,4-kl]acridine ring system” (Universidad Complutense de Madrid, priority 1998, dated 2003)

What was measured:
Format in all cases: cell-based
[1] = system: MEL-28 (ATCC HTB-38, monolayer culture of a human melanoma); assay: Cytotoxicity against MEL-28 cells, crystal violet staining, approximate IC50; settings: SK-MEL-28, 72 h, three days of incubation
Protocol: (§1) Its antitumor activity has been detected in vitro by culturing the tumor cells following the methodology described by Bergeron et al. ^16, and by Schroeder et al ^16. Activity against different tumors as mouse lymphoma, human NSC lung carcinoma, human melanoma and human colon carcinoma has been observed.
(§2) Biological activity: Cells were maintained in logarithmic phase of growth in Eagle's Minimum Essential Medium, with Earle's Balanced Salts, with 2.0 mM L-glutamine, with non-essential amino acids, without sodium bicarbonate (EMEM/neaa); suplemented with 10% Fetal Calf Serum (FCS), 10^−2 M sodium bicarbonate and 0,1 g/l penicillin-G+ streptomycin sulfate.
(§3) The tumor cell lines employed have been P-388 (ATCC CCL-46, suspension culture of a lymphoid neoplasm from DBA/2 mouse), A-549 (ATCC CCL-185, monolayer culture of a human lung carcinoma), HT-29 (ATCC HTB-38, monolayer culture of a human colon carcinoma) and MEL-28 (ATCC […], monolayer culture of a human melanoma).
(§4) A-549, HT-29 and MEL-28 were seeded into 16 mm wells at 2×10^4 cells per well in 1 ml aliquots of MEM 10FCS containing the indicated concentration of drug. A separate set of cultures without drug was seeded as control growth to ensure that cells remained in exponential phase of growth. All determinations were carried out in duplicate. After three days of incubation at 37° C., 10% CO2 in a 98% humide atmosphere, the wells were stained with 0.1% Crystal Violet. An aproximate IC50 was determined by comparing the growth in wells with drug to the growth in wells control.
(§5) In Table I are presented the cytotoxicity expressed as IC50 in μg/ml and μM

[2] = system: P-388 (ATCC CCL-46, suspension culture of a lymphoid neoplasm from DBA/2 mouse); assay: Cytotoxicity against P-388 cells, approximate IC50 from growth versus control wells; settings: P388, 72 h, three days of incubation
Protocol: as §1, §2, §3
as §4, with “P-388 cells” for “A-549, HT-29 and MEL-28”, “1×10^4” for “2×10^4”, “5FCS” for “10FCS”, “an” for “the wells were stained with 0.1% Crystal Violet. An”
as §5

[3] = system: several mammalian cancer cell lines; assay: In vitro antitumor activity by culturing tumor cells (overall statement); settings: mouse lymphoma, human NSC lung carcinoma, human melanoma, human colon carcinoma
Text: as §1

[4] = system: HT-29 (ATCC HTB-38, monolayer culture of a human colon carcinoma); assay: Cytotoxicity against HT-29 cells, crystal violet staining, approximate IC50; settings: HT-29, 72 h, three days of incubation
Protocol: as §1, §2, §3, §4, §5

[5] = system: A-549 (ATCC CCL-185, monolayer culture of a human lung carcinoma); assay: Cytotoxicity against A-549 cells, crystal violet staining, approximate IC50; settings: A549, 72 h, three days of incubation
Protocol: as §1, §2, §3, §4, §5

O=C1c2c(O)ccnc2-c2nc3ccccc3c3ccnc1c23 [IB-98205, 9-hydroxybenzo[b]pyrido[4,3,2-d,e](1,10)phenantrolin-8-one]
IC50 ([1]; duplicate): 0.05 µg/mL
IC50 ([1]; value in brackets): 170 nM
IC50 ([2]; duplicate): 1.25 µg/mL
IC50 ([2]; value in brackets): 4180 nM
antitumor activity against several mammalian cancer cell lines [3]: good antitumor activity
IC50 ([4]; duplicate): 0.12 µg/mL
IC50 ([4]; value in brackets): 400 nM
IC50 ([5]; duplicate): 12 ng/mL
IC50 ([5]; value in brackets): 40 nM

Cc1cc(=O)[nH]c2c1-c1nc3ccccc3c3ccnc(c13)C2=O [IB-96213, 12-Methyl-9H-benzo[b]pyrido[4,3,2-d,e](1,7)phenantroline-8,10-dione]
IC50 ([1]; duplicate): 0.001 µg/mL
IC50 ([1]; value in brackets): 3 nM
IC50 ([2]; duplicate): 0.1 µg/mL
IC50 ([2]; value in brackets): 320 nM
antitumor activity against several mammalian cancer cell lines [3]: good antitumor activity
IC50 ([4]; duplicate): 1 µg/mL
IC50 ([4]; value in brackets): 3180 nM
IC50 ([5]; duplicate): 1 ng/mL
IC50 ([5]; value in brackets): 3 nM
